By IC50 is commonly meant the midpoint of a concentration-inhibition curve.

This passage reports IC50 results from patent US20070021434A1, “NON-NUCLEOSIDE ANTI-HEPACIVIRUS AGENTS AND USES THEREOF” (Migenix Inc., priority 2005, published 2007).

The target in the experiment is HCV RdRp (NS5B) (UniProt P26663). The format is biochemical, hepatitis C virus.
Sequence of HCV RdRp (NS5B) (P26663 whole entry, looked up): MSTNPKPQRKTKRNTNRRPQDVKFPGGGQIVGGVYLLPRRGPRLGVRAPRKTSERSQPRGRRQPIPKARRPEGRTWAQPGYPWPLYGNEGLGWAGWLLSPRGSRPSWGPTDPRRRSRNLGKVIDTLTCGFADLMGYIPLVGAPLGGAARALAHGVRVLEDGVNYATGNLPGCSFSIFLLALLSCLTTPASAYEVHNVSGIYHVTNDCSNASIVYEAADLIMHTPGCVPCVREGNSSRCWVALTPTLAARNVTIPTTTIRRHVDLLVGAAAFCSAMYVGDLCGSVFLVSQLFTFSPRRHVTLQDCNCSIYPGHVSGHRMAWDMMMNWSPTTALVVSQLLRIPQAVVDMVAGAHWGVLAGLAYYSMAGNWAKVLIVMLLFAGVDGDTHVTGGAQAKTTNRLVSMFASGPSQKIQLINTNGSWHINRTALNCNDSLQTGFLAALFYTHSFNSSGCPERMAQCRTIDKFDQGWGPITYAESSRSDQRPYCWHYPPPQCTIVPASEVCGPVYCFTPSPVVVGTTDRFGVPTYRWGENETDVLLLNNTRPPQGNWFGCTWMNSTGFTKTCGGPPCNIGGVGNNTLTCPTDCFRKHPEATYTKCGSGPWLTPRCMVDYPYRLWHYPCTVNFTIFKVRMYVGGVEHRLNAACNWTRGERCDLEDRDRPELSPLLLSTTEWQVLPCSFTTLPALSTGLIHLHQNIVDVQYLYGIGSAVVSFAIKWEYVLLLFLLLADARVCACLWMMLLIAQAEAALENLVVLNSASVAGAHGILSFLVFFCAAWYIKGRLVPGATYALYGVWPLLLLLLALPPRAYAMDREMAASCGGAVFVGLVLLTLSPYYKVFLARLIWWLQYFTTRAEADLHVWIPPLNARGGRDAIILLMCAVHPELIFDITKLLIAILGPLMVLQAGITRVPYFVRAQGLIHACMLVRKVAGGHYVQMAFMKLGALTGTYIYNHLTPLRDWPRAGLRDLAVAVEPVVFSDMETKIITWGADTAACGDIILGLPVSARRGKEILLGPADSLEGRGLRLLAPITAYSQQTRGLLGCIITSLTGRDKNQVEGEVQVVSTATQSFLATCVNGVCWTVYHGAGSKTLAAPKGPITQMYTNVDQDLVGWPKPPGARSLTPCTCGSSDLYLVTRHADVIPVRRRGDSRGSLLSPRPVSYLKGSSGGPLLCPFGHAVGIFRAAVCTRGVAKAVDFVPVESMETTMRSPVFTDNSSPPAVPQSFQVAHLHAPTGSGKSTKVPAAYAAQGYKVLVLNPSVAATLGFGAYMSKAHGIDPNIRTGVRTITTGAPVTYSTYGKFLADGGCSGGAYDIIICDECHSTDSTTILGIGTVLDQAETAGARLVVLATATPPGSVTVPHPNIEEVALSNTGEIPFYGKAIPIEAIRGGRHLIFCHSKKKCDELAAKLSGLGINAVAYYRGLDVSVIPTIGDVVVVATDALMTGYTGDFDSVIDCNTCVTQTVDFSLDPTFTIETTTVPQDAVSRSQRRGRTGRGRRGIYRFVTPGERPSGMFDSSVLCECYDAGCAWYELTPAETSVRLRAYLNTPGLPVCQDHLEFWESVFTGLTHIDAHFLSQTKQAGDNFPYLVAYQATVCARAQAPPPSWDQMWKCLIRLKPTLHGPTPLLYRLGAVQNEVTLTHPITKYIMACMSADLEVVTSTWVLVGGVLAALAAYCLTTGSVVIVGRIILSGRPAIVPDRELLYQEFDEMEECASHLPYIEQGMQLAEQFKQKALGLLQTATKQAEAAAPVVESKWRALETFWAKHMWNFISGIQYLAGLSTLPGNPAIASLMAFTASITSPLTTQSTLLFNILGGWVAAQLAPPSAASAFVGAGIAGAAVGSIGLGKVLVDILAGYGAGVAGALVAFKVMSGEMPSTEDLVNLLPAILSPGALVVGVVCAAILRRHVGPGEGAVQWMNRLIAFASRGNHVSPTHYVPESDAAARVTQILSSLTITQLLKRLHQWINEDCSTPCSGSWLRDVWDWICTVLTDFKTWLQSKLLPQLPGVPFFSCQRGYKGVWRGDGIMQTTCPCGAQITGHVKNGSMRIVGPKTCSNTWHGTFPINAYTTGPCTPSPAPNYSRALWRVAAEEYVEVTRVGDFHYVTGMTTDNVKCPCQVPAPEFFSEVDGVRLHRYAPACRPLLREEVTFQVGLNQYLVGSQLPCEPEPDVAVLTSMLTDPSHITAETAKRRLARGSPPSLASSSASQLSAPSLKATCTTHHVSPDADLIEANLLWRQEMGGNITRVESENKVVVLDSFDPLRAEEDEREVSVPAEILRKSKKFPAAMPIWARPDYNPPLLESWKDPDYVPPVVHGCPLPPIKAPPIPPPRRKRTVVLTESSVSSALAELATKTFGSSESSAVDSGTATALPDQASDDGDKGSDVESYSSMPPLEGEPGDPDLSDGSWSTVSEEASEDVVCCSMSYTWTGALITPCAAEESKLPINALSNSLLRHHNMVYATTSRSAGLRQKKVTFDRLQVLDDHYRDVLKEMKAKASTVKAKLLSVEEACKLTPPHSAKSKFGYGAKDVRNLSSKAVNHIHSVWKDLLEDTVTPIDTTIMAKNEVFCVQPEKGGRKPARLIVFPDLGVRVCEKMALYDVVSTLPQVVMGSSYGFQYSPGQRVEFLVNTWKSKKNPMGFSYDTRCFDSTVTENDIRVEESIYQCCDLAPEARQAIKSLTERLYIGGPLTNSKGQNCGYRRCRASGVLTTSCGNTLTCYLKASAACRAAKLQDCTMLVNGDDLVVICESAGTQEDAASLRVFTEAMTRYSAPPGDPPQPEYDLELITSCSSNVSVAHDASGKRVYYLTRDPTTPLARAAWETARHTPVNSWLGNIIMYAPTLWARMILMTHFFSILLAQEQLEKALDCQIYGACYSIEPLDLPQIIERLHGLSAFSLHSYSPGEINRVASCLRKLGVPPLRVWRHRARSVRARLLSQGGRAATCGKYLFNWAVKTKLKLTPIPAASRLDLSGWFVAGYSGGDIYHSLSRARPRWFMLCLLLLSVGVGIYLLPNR
In the case of `CCNCC(=O)NCCCC(NC(=O)OCC1c2ccccc2-c2ccccc21)C(=O)Nc1ccc(C)cc1` [Compound 242, (S)-[4-(2-ETHYLAMINO-ACETYLAMINO)-1-P-TOLYLCARBAMOYL-BUTYL]-CARBAMIC ACID 9H-FLUOREN-9-YLMETHYL ESTER], the IC50 was < 10 µM. In the case of `Cc1ccc(NC(=O)C(CCCCN)NC(=O)Nc2ccc(CCc3ccccc3)cc2)cc1` [Compound 243, (S)-6-AMINO-2-[3-(4-PHENETHYL-PHENYL)-UREIDO]-HEXANOIC ACID P-TOLYLAMIDE], the IC50 was > 50 µM. As for `CCCCOc1ccc(NC(=O)N[C@@H](CCCCN)C(=O)Nc2ccc(C)cc2)cc1` [Compound 244, (S)-6-AMINO-2-[3-(4-BUTOXY-PHENYL)-UREIDO]-HEXANOIC ACID P-TOLYLAMIDE], the IC50 is > 50 µM. Take `CCOC(=O)c1ccc(NC(=O)NC(CCCCN)C(=O)Nc2ccc(C)cc2)cc1` [Compound 245, (S)-4-[3-(5-AMINO-1-P-TOLYLCARBAMOYL-PENTYL)-UREIDO]-BENZOIC ACID ETHYL ESTER]: the IC50 is > 50 µM.

`Cc1ccc(NC(=O)C[C@H](CCCCN)NC(=O)Nc2ccc3c(c2)Cc2ccccc2-3)cc1` [Compound 247, (S)-7-AMINO-3-[3-(9H-FLUOREN-2-YL)-UREIDO]-HEPTANOIC ACID P-TOLYLAMIDE] displayed an IC50 of 10 to 50 µM. In turn, `Cc1ccc(NC(=O)[C@H](CCCCN)NC(=O)Nc2ccc(OCc3ccccc3F)cc2)cc1` [Compound 248, (S)-6-AMINO-2-{3-[4-(2-FLUORO-BENZYLOXY)-PHENYL]-UREIDO}-HEXANOIC ACID P-TOLYLAMIDE] gave an IC50 of 10 to 50 µM.

Consider `Cc1ccc(NC(=O)[C@H](CCCCN)NC(=O)Nc2ccc(OCc3cccc(F)c3)cc2)cc1` [Compound 249, (S)-6-AMINO-2-{3-[4-(3-FLUORO-BENZYLOXY)-PHENYL]-UREIDO}-HEXANOIC ACID P-TOLYLAMIDE], for which the IC50 is 10 to 50 µM. Regarding `Cc1ccc(NC(=O)[C@H](CCCCN)NC(=O)Nc2ccc(OCc3ccc(F)cc3)cc2)cc1` [Compound 250, (S)-6-AMINO-2-{3-[4-(4-FLUORO-BENZYLOXY)-PHENYL]-UREIDO}-HEXANOIC ACID P-TOLYLAMIDE], the half-maximal inhibitory concentration (IC50) fell in the range of 10 to 50 µM. Consider `Cc1ccc(NC(=O)C(CCCCN)NC(=O)Nc2ccc(CN(C)c3ccc([N+](=O)[O-])cc3)cc2)cc1` [Compound 251, (S)-6-AMINO-2-[3-(4-{[METHYL-(4-NITRO-PHENYL)-AMINO]-METHYL}-PHENYL)-UREIDO]-HEXANOIC ACID P-TOLYLAMIDE], for which the IC50 is < 10 µM. Take `COc1ccc(C=Cc2ccc(NC(=O)N[C@@H](CCCCN)C(=O)Nc3ccc(C)cc3)cc2)cc1` [Compound 252, (S)-6-AMINO-2-(3-{4-[2-(4-METHOXY-PHENYL)-VINYL]-PHENYL}-UREIDO)-HEXANOIC ACID P-TOLYLAMIDE]: the IC50 was < 10 µM. Turning to `Cc1ccc(NC(=O)[C@H](CCCCN)NC(=O)Nc2ccc(OCc3ccccc3)c(Cl)c2)cc1` [Compound 253, (S)-6-AMINO-2-[3-(4-BENZYLOXY-3-CHLORO-PHENYL)-UREIDO]-HEXANOIC ACID P-TOLYLAMIDE], the IC50 lay within 10 to 50 µM.

`Cc1ccc(NC(=O)[C@H](CCCCN)NC(=O)Nc2ccc(OCc3ccccc3)cc2)cc1C` [Compound 254, (S)-6-AMINO-2-[3-(4-BENZYLOXY-PHENYL)-UREIDO]-HEXANOIC ACID (3,4-DIMETHYL-PHENYL)-AMIDE] registered an IC50 of 10 to 50 µM. The molecule `NCCCC[C@H](NC(=O)Nc1ccc(OCc2ccccc2)cc1)C(=O)NC1CCCC1` [Compound 255, (S)-6-AMINO-2-[3-(4-BENZYLOXY-PHENYL)-UREIDO]-HEXANOIC ACID CYCLOPENTYLAMIDE] showed an IC50 of 10 to 50 µM.

For the molecule `Cc1ccc(NC(=O)[C@H](CCCCN)NC(=O)Nc2ccc(OCc3cc(F)cc(F)c3)cc2)cc1` [Compound 256, (S)-6-AMINO-2-{3-[4-(3,5-DIFLUORO-BENZYLOXY)-PHENYL]-UREIDO}-HEXANOIC ACID P-TOLYLAMIDE], the IC50 was > 50 µM. The figure for `Cc1ccc(NC(=O)C(CCCCN)NC(=O)Nc2cccc(-c3nc4ccccc4o3)c2)cc1` [Compound 257, (S)-6-AMINO-2-[3-(3-BENZOOXAZOL-2-YL-PHENYL)-UREIDO]-HEXANOIC ACID P-TOLYLAMIDE] is > 50 µM; for `CCCCNC(=O)[C@H](CCCCN)NC(=O)Nc1ccc(OCc2ccccc2)cc1` [Compound 258, (S)-6-AMINO-2-[3-(4-BENZYLOXY-PHENYL)-UREIDO]-HEXANOIC ACID BUTYLAMIDE] it is > 50 µM; for `NCCCC[C@H](NC(=O)Nc1ccc(OCc2ccccc2)cc1)C(=O)OCCN` [Compound 259, (S)-6-AMINO-2-[3-(4-BENZYLOXY-PHENYL)-UREIDO]-HEXANOIC ACID (2-AMINO-ETHYL)-ESTER] it is > 50 µM. In the case of `NCCCC[C@H](NC(=O)Nc1ccc(OCc2ccccc2)cc1)C(=O)NCCO` [Compound 260, (S)-6-AMINO-2-[3-(4-BENZYLOXY-PHENYL)-UREIDO]-HEXANOIC ACID (2-HYDROXY-ETHYL)-AMIDE], the half-inhibitory concentration (IC50) was > 50 µM. The figure for `Cc1ccc(NC(=O)[C@H](CCCCN)NC(=O)Nc2ccc(OCc3cccnc3)cc2)cc1` [Compound 261, (S)-6-AMINO-2-{3-[4-(PYRIDIN-3-YLMETHOXY)-PHENYL]-UREIDO}-HEXANOIC ACID P-TOLYLAMIDE] is > 50 µM. `NCCCCCCNC(=O)C(Cc1ccccc1)NC(=O)Nc1ccc(OCc2ccccc2)cc1` [Compound 263, (S)—NR-(6-AMINO-HEXYL)-2-13-(4-BENZYLOXY-PHENYL)-UREIDO]-3-PHENYL-PROPIONAMIDE] came in with an IC50 of 10 to 50 µM. The same measure for `NCCCC[C@H](NC(=O)Nc1ccc(OCc2ccccc2)cc1)C(=O)NCC1CCCCC1` [Compound 265, (s)-6-AMINO-2-[3-(4-BENZYLOXY-PHENYL)-UREIDO]-HEXANOIC ACID CYCLOHEXYLMETHYL-AMIDE]: 10 to 50 µM. The same measure for `NCCCC[C@H](NC(=O)Nc1ccc(OCc2ccccc2)cc1)C(=O)NC1CC1` [Compound 266, (S)-6-AMINO-2-[3-(4-BENZYLOXY-PHENYL)-UREIDO]-HEXANOIC ACID CYCLOPROPYLAMIDE]: > 50 µM; for `NCCCC[C@H](NC(=O)OCC1c2ccccc2-c2ccccc21)C(=O)Nc1cc(-c2ccccc2)n[nH]1` [Compound 267, (S)-[5-AMINO-1-(5-PHENYL-2H-PYRAZOL-3-YLCARBAMOYL)-PENTYL]-CARBAMIC ACID 9H-FLUOREN-9-YLMETHYL ESTER]: 10 to 50 µM; for `Cc1ccc(NC(=O)C(CCCCN)NC(=O)Nc2ccc(N3CCCCC3)cc2)cc1` [Compound 269, (S)-6-AMINO-2-[3-(4-PIPERIDIN-1-YL-PHENYL)-UREIDO]-HEXANOIC ACID P-TOLYLAMIDE]: > 50 µM.

With `Cc1ccc(NC(=O)C(CCCCN)NC(=O)Nc2cccc(-c3nc4ccccc4o3)c2)cc1` [Compound 271, (S)-6-AMINO-2-[3-(3-BENZOOXAZOL-2-YL-PHENYL)-UREIDO]-HEXANOIC ACID P-TOLYLAMIDE], the IC50 was < 10 µM.

`Cc1ccc(NC(=O)[C@H](CCCCN)NC(=O)Nc2ccc(OCc3ccc(Cl)cc3)cc2)cc1` [Compound 273, (S)-6-AMINO-2-{3-[4-(4-CHLORO-BENZYLOXY)-PHENYL]-UREIDO}-HEXANOIC ACID P-TOLYLAMIDE]: the IC50 was < 10 µM.

In the case of `Cc1ccc(NC(=O)[C@H](CCCCN)NC(=O)Nc2ccc(OCc3ccc(Cl)cc3Cl)cc2)cc1` [Compound 274, (S)-6-AMINO-2-{3-[4-(2,4-DICHLORO-BENZYLOXY)-PHENYL]-UREIDO}-HEXANOIC ACID P-TOLYLAMIDE], the half-inhibitory concentration (IC50) was < 10 µM. `Cc1ccc(NC(=O)[C@H](CCCCN)NC(=O)Nc2ccc(OCc3cccc([N+](=O)[O-])c3)cc2)cc1` [Compound 275, (S)-6-AMINO-2-{3-[4-(3-NITRO-BENZYLOXY)-PHENYL]-UREIDO}-HEXANOIC ACID P-TOLYLAMIDE] displayed a half-maximal inhibitory concentration (IC50) of 10 to 50 µM. For the molecule `COC(=O)c1cccc(COc2ccc(NC(=O)NC(CCCCN)C(=O)Nc3ccc(C)cc3)cc2)c1` [Compound 276, (S)-3-{4-[3-(5-AMINO-1-P-TOLYLCARBAMOYL-PENTYL)-UREIDO]-PHENOXYMETHYL}-BENZOIC ACID METHYL ESTER], the IC50 fell in the range of 10 to 50 µM. For `Cc1ccc(NC(=O)C(CCCCN)NC(=O)Nc2ccc(OC(C)c3ccccc3)cc2)cc1` [Compound 277, (2S)-6-AMINO-2-{3-[4-(1-PHENYL-ETHOXY)-PHENYL]-UREIDO}-HEXANOIC ACID P-TOLYLAMIDE], the IC50 was > 50 µM.

For the molecule `Cc1ccc(NC(=O)CN(CCCCN)C(=O)Nc2ccc(OCc3ccccc3)cc2)cc1` [Compound 278, 2-[1-(4-AMINO-BUTYL)-3-(4-BENZYLOXY-PHENYL)-UREIDO]-N-P-TOLYL-ACETAMIDE], the IC50 was 10 to 50 µM. Consider `Cc1ccc(NC(=O)[C@H](CCCCN)NC(=O)Nc2ccc(OCc3ccncc3)cc2)cc1` [Compound 279, (S)-6-AMINO-2-{3-[4-(PYRIDIN-4-YLMETHOXY)-PHENYL]-UREIDO}-HEXANOIC ACID P-TOLYLAMIDE], for which the IC50 is > 50 µM.

Regarding `NCCCCN(CC(=O)Nc1cccc2[nH]ccc12)C(=O)Nc1ccc(OCc2ccccc2)cc1` [Compound 281, 2-[1-(4-AMINO-BUTYL)-3-(4-BENZYLOXY-PHENYL)-UREIDO]-NR-(1H-INDOL-4-YL)-ACETAMIDE], the IC50 is > 50 µM. On to `CC(C)(C)c1ccc(NC(=O)CN(CCCCN)C(=O)Nc2ccc(OCc3ccccc3)cc2)cc1` [Compound 282, 2-[1-(4-AMINO-BUTYL)-3-(4-BENZYLOXY-PHENYL)-UREIDO]-N-(4-TERT-BUTYL-PHENYL)-ACETAMIDE], for which the IC50 was > 50 µM. As for `NCCCC[C@H](NC(=O)Nc1ccc(OCc2ccccc2)cc1)C(=O)Nc1ccc2c(c1)CCC2` [Compound 283, (S)-6-AMINO-2-[3-(4-BENZYLOXY-PHENYL)-UREIDO]-HEXANOIC ACID INDAN-5-YLAMIDE], the IC50 was 10 to 50 µM. The molecule `Cc1ccc(NC(=O)[C@H](CCCCN)NC(=O)Nc2ccc(OCc3cccc(F)c3F)cc2)cc1` [Compound 284, (S)-6-AMINO-2-{3-[4-(2,3-DIFLUORO-BENZYLOXY)-PHENYL]-UREIDO}-HEXANOIC ACID P-TOLYLAMIDE] yielded an IC50 of 10 to 50 µM. As to `Cc1ccc(NC(=O)[C@H](CCCCN)NC(=O)Nc2ccc(OCc3ccc(F)cc3F)cc2)cc1` [Compound 285, (S)-6-AMINO-2-{3-[4-(2,4-DIFLUORO-BENZYLOXY)-PHENYL]-UREIDO}-HEXANOIC ACID P-TOLYLAMIDE], the IC50 lay within 10 to 50 µM.
